Laboratory results taken from article PMC4411398 (Science signaling, 2012).
Each block holds one compound with its values, some of them ahead of it.

Columns and labels:
Assay type in all cases: biochemical
GC-B = GC-B (Rattus norvegicus, UniProt P16067); assay: GC assay
endogenous GC-B = endogenous GC-B (Mus musculus, UniProt Q6VVW5); assay: GC assay in crude membranes from NIH 3T3 cells; conditions: 125 nM CNP, 0.1 mM GTP
GC-A = target: T1, GC-A (Rattus norvegicus, UniProt P18910); assay: GC assay; conditions: for EC50: EC50 for activation; for increase of ANP-stimulated GC-A activity by adenine nucleotide: saturating ANP
T1 sequence (P18910 29-1057): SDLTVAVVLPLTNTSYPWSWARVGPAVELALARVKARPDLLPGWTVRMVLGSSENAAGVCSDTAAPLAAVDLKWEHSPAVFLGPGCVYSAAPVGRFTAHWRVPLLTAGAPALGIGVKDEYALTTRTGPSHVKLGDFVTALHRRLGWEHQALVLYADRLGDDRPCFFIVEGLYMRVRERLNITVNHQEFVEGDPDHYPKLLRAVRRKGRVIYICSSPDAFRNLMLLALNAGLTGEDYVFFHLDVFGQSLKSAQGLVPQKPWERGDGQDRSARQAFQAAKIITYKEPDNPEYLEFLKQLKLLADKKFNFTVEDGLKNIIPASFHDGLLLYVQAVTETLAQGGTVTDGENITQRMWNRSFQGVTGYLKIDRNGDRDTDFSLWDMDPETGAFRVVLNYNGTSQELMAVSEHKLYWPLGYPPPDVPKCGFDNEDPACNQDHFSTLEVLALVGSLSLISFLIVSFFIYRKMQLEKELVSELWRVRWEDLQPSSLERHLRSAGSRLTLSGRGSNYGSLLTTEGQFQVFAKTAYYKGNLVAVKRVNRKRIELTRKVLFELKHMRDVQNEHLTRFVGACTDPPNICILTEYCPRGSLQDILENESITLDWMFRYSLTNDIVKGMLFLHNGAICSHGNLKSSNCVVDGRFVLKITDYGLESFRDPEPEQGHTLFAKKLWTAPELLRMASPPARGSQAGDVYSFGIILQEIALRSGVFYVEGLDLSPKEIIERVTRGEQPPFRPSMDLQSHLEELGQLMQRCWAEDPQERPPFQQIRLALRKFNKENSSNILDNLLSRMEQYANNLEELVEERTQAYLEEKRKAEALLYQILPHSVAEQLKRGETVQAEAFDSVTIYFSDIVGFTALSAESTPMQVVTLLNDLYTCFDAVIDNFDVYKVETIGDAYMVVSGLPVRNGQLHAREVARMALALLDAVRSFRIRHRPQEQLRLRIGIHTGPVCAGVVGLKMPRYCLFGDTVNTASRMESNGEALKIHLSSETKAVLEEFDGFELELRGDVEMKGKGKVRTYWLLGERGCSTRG
T1 sequence (P01161 123-150 partner limits assumed): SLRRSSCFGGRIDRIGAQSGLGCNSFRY

[1] = presence of CNP, absence of ATP, increasing Mg2+GTP
[2] = 1 μM ANP, 9 min, nucleotide at 1 mM
[3] = NP-stimulated, 9 min, 10 μM ATP
[4] = NP-stimulated, 9 min, 100 μM ATP
[5] = CNP-stimulated, presence of ATP
[6] = NP-stimulated, 9 min, 750 μM ATP

GC-B, sequence (P16067 17-1047): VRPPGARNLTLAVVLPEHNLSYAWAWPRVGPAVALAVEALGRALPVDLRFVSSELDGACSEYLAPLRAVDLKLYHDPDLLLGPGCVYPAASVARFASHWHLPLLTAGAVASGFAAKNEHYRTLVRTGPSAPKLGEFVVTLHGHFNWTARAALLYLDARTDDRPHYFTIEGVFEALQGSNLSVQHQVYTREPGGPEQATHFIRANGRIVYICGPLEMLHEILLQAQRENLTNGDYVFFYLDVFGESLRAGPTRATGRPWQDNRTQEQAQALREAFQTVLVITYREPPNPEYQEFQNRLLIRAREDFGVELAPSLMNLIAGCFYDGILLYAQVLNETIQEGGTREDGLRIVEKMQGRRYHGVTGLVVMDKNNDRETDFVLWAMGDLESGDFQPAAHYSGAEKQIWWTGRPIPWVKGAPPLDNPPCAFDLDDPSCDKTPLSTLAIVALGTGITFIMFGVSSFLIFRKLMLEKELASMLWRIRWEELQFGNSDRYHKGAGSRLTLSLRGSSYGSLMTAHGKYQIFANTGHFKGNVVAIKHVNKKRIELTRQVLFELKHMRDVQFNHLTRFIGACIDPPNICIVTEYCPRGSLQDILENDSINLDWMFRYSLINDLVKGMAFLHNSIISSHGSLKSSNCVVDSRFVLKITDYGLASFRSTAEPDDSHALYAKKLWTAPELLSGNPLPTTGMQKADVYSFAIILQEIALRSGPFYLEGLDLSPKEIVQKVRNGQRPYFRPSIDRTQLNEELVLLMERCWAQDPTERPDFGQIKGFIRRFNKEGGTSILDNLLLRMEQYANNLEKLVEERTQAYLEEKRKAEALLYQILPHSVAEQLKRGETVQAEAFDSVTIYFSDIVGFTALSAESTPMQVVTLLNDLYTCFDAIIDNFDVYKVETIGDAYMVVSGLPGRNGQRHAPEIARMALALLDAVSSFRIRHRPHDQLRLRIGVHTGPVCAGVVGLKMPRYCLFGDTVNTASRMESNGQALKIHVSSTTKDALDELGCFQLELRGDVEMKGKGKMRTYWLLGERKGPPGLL
GC-B, sequence (P55207 105-126 partner limits assumed): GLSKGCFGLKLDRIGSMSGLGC
endogenous GC-B, sequence (Q6VVW5 17-1047): as the sequence (P16067 17-1047) above, with H100R, T188A, E385D, I449V, R1024Q counted along it

Compound: C-type natriuretic peptide [CNP]
increase of maximal velocity (GC-B; absence of ATP): 13 fold
S0.5 (GC-B; [1]): 1.0 ± 0.15 mM
Vmax (GC-B; [1]): 49 ± 3.7 nmol mg^−1 (9 min)^−1
increase of GC-B activity (endogenous GC-B; absence of ATP): no statistically significant increase in activity
increase of GC-B activity (endogenous GC-B; presence of 1 mM ATP): more than fourfold

Compound: Nc1ncnc2c1ncn2[C@@H]1O[C@H](COP(=O)(O)OP(=O)(O)OP(=O)(O)O)[C@@H](O)[C@H]1O [ATP, adenosine triphosphate]
Km (GC-A; [2]): 100 ± 20 µM
EC50 (GC-A; NP-stimulated, 0.1 mM GTP): 77 µM
EC50 (GC-A; NP-stimulated, 0.3 mM GTP): 38 µM
EC50 (GC-A; NP-stimulated, 0.9 mM GTP): 38 µM
EC50 (GC-A; NP-stimulated, 5.4 mM GTP): 16 µM
Km (GC-A; NP-activated receptor, presence of ATP): ~100 µM
Hill coefficient (GC-A; [3]): 1.2 ± 0.08
Hill coefficient (GC-A; [4]): 0.9 ± 0.07
Michaelis constant (GC-A; [4]): 0.08 ± 0.010 mM
S0.5 (GC-B; [5]): 0.09 ± 0.02 mM
Vmax (GC-B; [5]): 41 ± 3.1 nmol mg^−1 (9 min)^−1
EC50 (GC-B; EC50 for ATP activation, approximate value stated in the discussion): ~100 µM
EC50 (GC-B; EC50 for activation, NP-stimulated, 0.1 mM GTP): 40 µM
EC50 (GC-B; EC50 for activation, NP-stimulated, 0.3 mM GTP): 26 µM
EC50 (GC-B; EC50 for activation, NP-stimulated, 0.9 mM GTP): 16 µM
EC50 (GC-B; EC50 for activation, NP-stimulated, 5.4 mM GTP): 19 µM
Hill coefficient (GC-B; [3]): 0.9 ± 0.13
Michaelis constant (GC-B; [3]): 0.4 ± 0.11 mM
Hill coefficient (GC-B; [6]): 0.9 ± 0.24
Michaelis constant (GC-B; [6]): 0.2 ± 0.18 mM
Hill coefficient (GC-B; absence of NPs, presence of ATP): 1.1
S0.5 (GC-B; basal (no NP), presence of ATP): 1.0 ± 0.15 mM
Vmax (GC-B; basal (no NP), presence of ATP): 4 ± 0.3 nmol mg^−1 (9 min)^−1

Second part, the compound after the results:

Hill coefficient (GC-A; [2]): 1.1 ± 0.18
Km (GC-A; [2]): 200 ± 40 µM
Compound: Nc1ncnc2c1ncn2[C@@H]1O[C@H](COP(=O)(O)OP(=O)(O)O)[C@@H](O)[C@H]1O [ADP, adenosine diphosphate]

increase of ANP-stimulated GC-A activity by adenine nucleotide (GC-A; 0.1 mM GTP): failed to increase activity
Compound: Nc1ncnc2c1ncn2[C@@H]1O[C@H](COP(=O)(O)O)[C@@H](O)[C@H]1O [AMP, adenosine monophosphate]

increase of ANP-stimulated GC-A activity by adenine nucleotide (GC-A; 0.1 mM GTP): failed to increase activity
Compound: Nc1ncnc2c1ncn2[C@@H]1O[C@H](CO)[C@@H](O)[C@H]1O [adenosine]

Hill coefficient (GC-A; [2]): 1.2 ± 0.24
Km (GC-A; [2]): 400 ± 80 µM
activation of GC-A compared with ATP (GC-A; single-substrate concentration GC assays, 0.1 mM GTP, ANP): poorer activator of GC-A than was ATP
Compound: Nc1ncnc2c1ncn2[C@H]1C[C@H](O)[C@@H](COP(=O)(O)OP(=O)(O)OP(=O)(O)O)O1 [2′-deoxy-ATP]
